Assays:
[1] = test system: membrane blebbing induced by anti-APO-1; assay: kinetics of membrane blebbing induced by anti-APO-1, in the presence of chelators; type: cell-based; settings: 10 mM
Excerpt: The CCRF-CEM.S2 subclone was obtained by cloning cells under limiting dilution conditions from the CCRF-CEM T cell line at one cell per well in 96-well microtiter plates.

[2] = test system: DNA fragmentation induced by anti-APO-1; assay: endonuclease-mediated DNA fragmentation induced by anti-APO-1, in the presence of Ca2+ channel blockers; type: cell-based; settings: Ca2+ channel blocker at 50 μM
Experimental: CCRF-CEM.S2 cells (10^6 per milliliter) were incubated with MAb (1 μg/ml) in culture medium at 37° C. At various times, aliquots of 10^6 cells were removed and DNA was prepared.
SKW6.4 cells were either incubated with the isotype-matched control MAb FII20, FII23 (nonbinding MAb), or anti-APO-1 in microcultures for 24 hours before labeling with [^3 H]-thymidine for a further 4 hours. The data represent the mean of duplicate cultures with a variation of less than 5%. The cells were cultured in RPMI 1640 medium (Gibco, Grand Island, N.Y.), supplemented with 2 mM L-glutamine, streptomycin (100 μg/ml), penicillin (100 U/ml), 20 mM Hepes buffer pH 7.3, and 10% heat-inactivatedfetal bovine serum (Conco Lab-Division, Wiesbaden, FRG). For microcultures 1×10^4 cells per well were cultured in duplicates in flat bottom 96-well microtiter plates (Tecnomara, Fernwald, FRG) (200 μfinal volume per well). After 24 hours, the cells were labeled with 0.5 μCi of [^3 H]-thymidine (Amersham, Braunschweig, FRG)) for 4 hours. Before harvesting, the microcultures were examined by microscopic inspection. For DNA fragmentation 1×10^6 cells were washed with cold phosphate-buffered saline and disrupted with NTE buffer, pH 8 (100 mM NaCl, 10 mM Tris-HCl, 1 mM EDTA) containing 1% SDS and proteinase K (0.2 mg/ml). […]

## O=C(O)CN(CCN(CC(=O)O)CC(=O)O)CC(=O)O [EDTA]
[1]
  influence on kinetics of membrane blebbing induced by anti-APO-1 (within 30 minutes): not influenced

## O=C(O)CN(CCOCCOCCN(CC(=O)O)CC(=O)O)CC(=O)O [EGTA]
[1]
  influence on kinetics of membrane blebbing induced by anti-APO-1 (within 30 minutes): not influenced

## COC(=O)C1=C(C)NC(C)=C(C(=O)OC)C1c1ccccc1[N+](=O)[O-] [Nifedipin]
[2]
  inhibition of endonuclease-mediated DNA fragmentation induced by anti-APO-1: not inhibited

## Furamicin
[2]
  inhibition of endonuclease-mediated DNA fragmentation induced by anti-APO-1: not inhibited

Source: patent publication US5891434A, “Monoclonal antibodies to the APO-1 antigen” (Centocor, Inc., priority 1995, dated 1999)
